Results on seven compounds are retold here after patent US7812035B2, “4-substituted piperidines, and methods of use thereof” (Sepracor Inc., priority 2001, dated 2010).

Read-outs that look alike come from different tables or passages of the source.

Assay type in all cases: cell-based
The target of assay [1] is norepinephrine transporter (Homo sapiens, UniProt P23975). Put plainly: NE uptake inhibition (monoamine transporter antagonism, methods of Galli et al). The note with it: read-out: NE uptake (% inhibition @1 μM).
The next assay deals with dopamine transporter. Nature of the assay: DA uptake inhibition (monoamine transporter antagonism, methods of Gu et al). The conditions noted are these: 1 μM compound.
The next assay has as its target serotonin transporter (UniProt P31645). Nature of the assay: 5-HT uptake inhibition (monoamine transporter antagonism, methods of Gu et al). The note with it: 1 μM compound.

Sequence of norepinephrine transporter (P23975 whole entry): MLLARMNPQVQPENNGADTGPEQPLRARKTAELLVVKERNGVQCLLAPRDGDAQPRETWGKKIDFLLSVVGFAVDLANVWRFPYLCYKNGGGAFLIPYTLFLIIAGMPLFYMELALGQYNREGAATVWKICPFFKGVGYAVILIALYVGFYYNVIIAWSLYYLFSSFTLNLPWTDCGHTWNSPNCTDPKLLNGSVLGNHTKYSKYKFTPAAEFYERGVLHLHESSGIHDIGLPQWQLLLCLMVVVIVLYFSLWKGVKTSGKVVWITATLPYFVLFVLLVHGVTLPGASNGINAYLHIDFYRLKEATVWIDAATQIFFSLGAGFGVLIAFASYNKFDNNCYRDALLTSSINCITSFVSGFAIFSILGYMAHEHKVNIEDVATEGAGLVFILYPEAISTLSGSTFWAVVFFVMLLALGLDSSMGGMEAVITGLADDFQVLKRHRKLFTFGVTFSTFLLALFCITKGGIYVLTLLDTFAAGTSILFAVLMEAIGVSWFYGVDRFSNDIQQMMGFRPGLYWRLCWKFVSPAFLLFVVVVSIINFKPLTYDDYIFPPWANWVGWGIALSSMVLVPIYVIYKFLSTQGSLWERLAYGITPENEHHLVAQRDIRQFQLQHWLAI

The term inhibition denotes the change of the read-out against control, counted positive when it falls. `FC(F)(F)c1ccc(OCC2CCN(CC3(c4ccc(Cl)cc4)CCC3)CC2)cc1` [Compound 13, 1-[1-(4-Chloro-Phenyl)-Cyclobutylmethyl]-4-(4-Trifluoromethyl-Phenoxymethyl)-Piperidine]: the inhibition at 1 µM in assay [1] was found to be 97%. Moreover, the “DA uptake (% inhibition @1 μM)” value with dopamine transporter is 94%. Further, the “5-HT uptake (% inhibition @1 μM)” value on serotonin transporter came out at 83%.
Consider `OCC1CCN(CC2(c3ccc(Cl)cc3)CCC2)CC1` [Compound 10, {1-[1-(4-chloro-phenyl)-cyclobuylmethyl]-piperidin-4-yl}-methanol], for which the inhibition at 1 µM in assay [1] turned out to be 62%. Also, in the assay on dopamine transporter, the “DA uptake (% inhibition @1 μM)” value was 70%. In addition, at serotonin transporter, the “5-HT uptake (% inhibition @1 μM)” value was 21%.
Consider `FC(F)(F)c1ccc(OC2CCN(CC3(c4ccc(Cl)cc4)CCC3)CC2)cc1` [Compound 8, 1-[1-(4-chloro-phenyl)-cyclobutylmethyl]-4-(4-trifluoromethal-phenoxy)-piperidine], for which, in assay [1], the inhibition at 1 µM was 38%. In the assay with dopamine transporter, the “DA uptake (% inhibition @1 μM)” value was found to be 25%. At serotonin transporter, the “5-HT uptake (% inhibition @1 μM)” value worked out at 56%.
For `FC(F)(F)c1cc(COC2CCN(CC3(c4ccc(Cl)cc4)CCC3)CC2)cc(C(F)(F)F)c1` [Compound 5], the inhibition at 1 µM in assay [1] (1 μM compound) worked out at 85%. Moreover, the “DA uptake (% inhibition @1 μM)” value with dopamine transporter is reported as 61%. Further, the “5-HT uptake (% inhibition @1 μM)” value on serotonin transporter came out at 14%.
`OC1CCN(CC2(c3ccc(Cl)cc3)CCC2)CC1` [Compound 2, 1-[1-(4-Chloro-phenyl)-cyclobutylmethyl]-piperidin-4-ol]: the inhibition at 1 µM in assay [1] is 65%. Also, the “DA uptake (% inhibition @1 μM)” value in the assay on dopamine transporter was determined as 88%. On serotonin transporter, the “5-HT uptake (% inhibition @1 μM)” value is on record as 36%.
Regarding `FC(F)(F)c1ccc(COC2CCN(CC3(c4ccc(Cl)cc4)CCC3)CC2)cc1` [Compound 6, [1-(4-chloro-phenyl)-cyclobutylmethyl]-4-(4-trifluoromethyl-benzyloxy)-piperidine], in assay [1], the inhibition at 1 µM stood at 78%. Further, the “DA uptake (% inhibition @1 μM)” value in the assay on dopamine transporter is listed as 85%. At serotonin transporter, the “5-HT uptake (% inhibition @1 μM)” value was 9%.
`FC(F)(F)c1ccc(COCC2CCN(CC3(c4ccc(Cl)cc4)CCC3)CC2)cc1` [Compound 11]: the inhibition at 1 µM in assay [1] (1 μM compound) was found to be 97%. The “DA uptake (% inhibition @1 μM)” value in the assay with dopamine transporter worked out at 97%. Also, on serotonin transporter, the “5-HT uptake (% inhibition @1 μM)” value is listed as 87%.
